Our source for the inhibition values is ChEMBL document CHEMBL5665443, “Enzyme Inhibitor Single Concentration assay results for EUbOPEN Chemogenomics Library” (2024).

What is called inhibition is the change of the read-out against control, counted positive when it falls.

For test [1], the target named is T1, Single-strand selective monofunctional uracil DNA glycosylase (Homo sapiens) (UniProt Q53HV7).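 Further: enzymatic SMUG1 assay coupled with APE1, reading fluorescence at 594 nm released when a quenched double-stranded DNA oligonucleotide substrate is cleaved and separated.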
T1 sequence (whole entry): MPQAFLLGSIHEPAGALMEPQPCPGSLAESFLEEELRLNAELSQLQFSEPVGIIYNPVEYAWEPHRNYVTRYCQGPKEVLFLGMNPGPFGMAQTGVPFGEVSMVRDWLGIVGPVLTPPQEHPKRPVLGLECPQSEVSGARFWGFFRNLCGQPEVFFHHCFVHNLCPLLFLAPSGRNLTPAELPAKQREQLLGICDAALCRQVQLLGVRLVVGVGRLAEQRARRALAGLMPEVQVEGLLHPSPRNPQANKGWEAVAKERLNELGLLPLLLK
As to conditions: Compound Concentration 10.0 uM.

Test [2] addresses DNA-3-methyladenine glycosylase (Homo sapiens) (UniProt P29372). To be noted: Compound Concentration 10.0 uM.
For test [3], the target named is Uracil-DNA glycosylase (Homo sapiens) (UniProt P13051). As to conditions: Compound Concentration 10.0 uM, Hit No.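 Further: UNG excision on a quenched double-stranded DNA oligo probe, with APE1 added for strand incision and turnover, read as fluorescence at 594 nm as strands separate.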
Uracil-DNA glycosylase (Homo sapiens), sequence (P13051 whole entry): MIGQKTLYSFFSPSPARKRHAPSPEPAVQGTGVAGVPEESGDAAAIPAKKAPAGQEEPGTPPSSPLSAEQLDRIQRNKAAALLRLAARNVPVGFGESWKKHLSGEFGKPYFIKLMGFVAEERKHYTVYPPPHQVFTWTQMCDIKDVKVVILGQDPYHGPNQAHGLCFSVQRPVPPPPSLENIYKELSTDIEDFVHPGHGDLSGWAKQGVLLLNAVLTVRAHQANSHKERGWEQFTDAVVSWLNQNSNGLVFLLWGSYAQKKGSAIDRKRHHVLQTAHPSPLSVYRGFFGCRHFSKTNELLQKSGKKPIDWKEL
Test [4] concerns the target T2, Endonuclease 8-like 2 (Homo sapiens) (UniProt Q969S2).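 Further: fluorescence at 594 nm reports NEIL2 cutting and release of a quenched double-stranded DNA oligo substrate, reduced signal read as inhibition.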
T2 sequence (whole entry): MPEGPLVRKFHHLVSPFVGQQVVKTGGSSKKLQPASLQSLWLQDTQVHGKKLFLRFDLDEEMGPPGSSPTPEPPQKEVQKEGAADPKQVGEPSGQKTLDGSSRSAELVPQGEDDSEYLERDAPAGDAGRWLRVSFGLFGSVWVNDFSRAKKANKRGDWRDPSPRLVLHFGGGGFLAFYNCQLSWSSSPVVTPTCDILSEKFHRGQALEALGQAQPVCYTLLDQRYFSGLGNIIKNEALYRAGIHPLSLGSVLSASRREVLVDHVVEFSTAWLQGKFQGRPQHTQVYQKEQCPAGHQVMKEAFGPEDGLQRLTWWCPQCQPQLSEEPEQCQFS
To be noted: Compound Concentration 10.0 uM.

The target of test [5] is Endonuclease 8-like 1 (Homo sapiens) (UniProt Q96FI4). To be noted: Compound Concentration 10.0 uM, Hit No.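 Further: fluorescence at 594 nm from quenched duplex DNA oligonucleotides released by NEIL1 cleavage and strand separation, reported as reduction of this enzyme activity.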
Endonuclease 8-like 1 (Homo sapiens), sequence (Q96FI4 whole entry, the tested form may be a part): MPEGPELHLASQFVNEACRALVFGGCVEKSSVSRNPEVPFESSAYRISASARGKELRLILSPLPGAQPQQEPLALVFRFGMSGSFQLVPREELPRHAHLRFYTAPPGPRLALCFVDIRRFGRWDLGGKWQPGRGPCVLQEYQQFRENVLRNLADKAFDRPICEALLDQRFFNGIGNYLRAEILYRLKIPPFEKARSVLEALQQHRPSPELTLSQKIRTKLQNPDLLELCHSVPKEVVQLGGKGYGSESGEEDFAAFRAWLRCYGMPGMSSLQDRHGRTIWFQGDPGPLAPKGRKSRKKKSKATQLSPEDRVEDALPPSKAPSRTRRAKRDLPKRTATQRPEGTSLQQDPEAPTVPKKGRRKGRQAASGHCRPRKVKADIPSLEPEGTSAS
The target in test [6] is Methyl-CpG-binding domain protein 4 (Homo sapiens) (UniProt O95243). To be noted: Compound Concentration 10.0 uM.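 Further: MBD4 activity read as fluorescence at 594 nm from cleavage and release of a quenched duplex DNA oligonucleotide, with APE1 coupled to incise the strand and raise turnover.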
Methyl-CpG-binding domain protein 4 (Homo sapiens), sequence (O95243 whole entry, the tested form may be a part): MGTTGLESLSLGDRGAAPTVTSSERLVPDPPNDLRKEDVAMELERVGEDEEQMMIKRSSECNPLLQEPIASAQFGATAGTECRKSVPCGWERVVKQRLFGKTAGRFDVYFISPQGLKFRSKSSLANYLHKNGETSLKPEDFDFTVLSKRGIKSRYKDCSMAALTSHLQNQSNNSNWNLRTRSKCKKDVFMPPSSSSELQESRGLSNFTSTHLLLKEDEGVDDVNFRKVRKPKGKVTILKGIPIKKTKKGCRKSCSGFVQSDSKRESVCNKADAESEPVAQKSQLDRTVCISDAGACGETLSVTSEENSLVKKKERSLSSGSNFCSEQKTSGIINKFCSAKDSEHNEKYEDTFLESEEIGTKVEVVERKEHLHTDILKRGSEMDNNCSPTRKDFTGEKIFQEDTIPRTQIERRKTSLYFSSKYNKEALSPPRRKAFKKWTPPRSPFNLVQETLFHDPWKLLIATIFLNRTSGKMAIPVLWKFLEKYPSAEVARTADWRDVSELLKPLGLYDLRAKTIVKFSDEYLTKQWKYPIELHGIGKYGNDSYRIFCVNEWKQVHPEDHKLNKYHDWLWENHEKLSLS
Test [7] has as its target T3, Adenine DNA glycosylase (Homo sapiens) (UniProt Q9UIF7).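 Further: human MUTYH activity read as 594 nm fluorescence from cleavage and release of a quenched DNA duplex, coupled with APE1 for strand incision, lower signal meaning inhibition.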
T3 sequence (whole entry): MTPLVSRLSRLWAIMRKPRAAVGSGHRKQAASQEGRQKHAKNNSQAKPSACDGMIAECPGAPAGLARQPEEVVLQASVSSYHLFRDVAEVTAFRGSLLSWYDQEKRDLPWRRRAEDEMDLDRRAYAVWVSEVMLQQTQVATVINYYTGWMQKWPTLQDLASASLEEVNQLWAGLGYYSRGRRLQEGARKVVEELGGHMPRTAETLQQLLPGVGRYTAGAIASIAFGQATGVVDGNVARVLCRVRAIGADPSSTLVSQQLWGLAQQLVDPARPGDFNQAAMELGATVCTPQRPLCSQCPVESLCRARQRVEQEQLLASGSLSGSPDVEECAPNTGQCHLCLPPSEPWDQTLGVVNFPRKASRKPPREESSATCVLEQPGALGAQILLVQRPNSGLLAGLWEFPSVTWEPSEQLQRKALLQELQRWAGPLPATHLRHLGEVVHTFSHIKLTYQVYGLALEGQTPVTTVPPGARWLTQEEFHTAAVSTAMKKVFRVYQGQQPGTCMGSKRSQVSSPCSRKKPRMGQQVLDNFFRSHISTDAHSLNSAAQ
As to conditions: Compound Concentration 10.0 uM, Hit No.

Test [8] deals with T4, Endonuclease III-like protein 1 (Homo sapiens) (UniProt P78549).
T4 sequence (whole entry): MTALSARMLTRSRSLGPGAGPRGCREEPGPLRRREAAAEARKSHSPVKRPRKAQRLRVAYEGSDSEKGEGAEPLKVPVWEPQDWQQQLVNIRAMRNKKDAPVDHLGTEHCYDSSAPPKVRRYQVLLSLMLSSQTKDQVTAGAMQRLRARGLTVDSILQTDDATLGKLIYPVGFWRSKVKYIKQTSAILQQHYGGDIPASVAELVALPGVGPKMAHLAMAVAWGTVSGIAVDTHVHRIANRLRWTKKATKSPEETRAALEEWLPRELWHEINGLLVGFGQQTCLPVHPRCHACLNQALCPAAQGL
As to conditions: Compound Concentration 10.0 uM.

In test [9] the target is N-glycosylase/DNA lyase (Homo sapiens) (UniProt O15527). As to conditions: Compound Concentration 10.0 uM.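 Further: OGG1 cleavage of a quenched duplex DNA oligonucleotide, coupled to APE1 for strand incision, read as fluorescence at 594 nm.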
N-glycosylase/DNA lyase (Homo sapiens), sequence (O15527 whole entry): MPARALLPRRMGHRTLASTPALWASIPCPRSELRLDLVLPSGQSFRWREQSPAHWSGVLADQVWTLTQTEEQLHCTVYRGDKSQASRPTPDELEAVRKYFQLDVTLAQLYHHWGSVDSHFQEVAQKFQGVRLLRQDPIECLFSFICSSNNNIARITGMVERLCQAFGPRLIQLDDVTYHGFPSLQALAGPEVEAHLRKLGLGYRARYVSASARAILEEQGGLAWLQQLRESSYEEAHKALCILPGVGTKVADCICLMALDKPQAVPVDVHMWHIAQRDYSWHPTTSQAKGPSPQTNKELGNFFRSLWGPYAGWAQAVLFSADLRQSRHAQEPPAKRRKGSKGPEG
Test [10] has as its target G/T mismatch-specific thymine DNA glycosylase (Homo sapiens) (UniProt Q13569). To be noted: Compound Concentration 10.0 uM.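 Further: human TDG cleavage of quenched duplex DNA oligonucleotides coupled to APE1, strand release read as fluorescence at 594 nm, inhibition of TDG activity.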

DNA-3-methyladenine glycosylase (Homo sapiens), sequence (P29372 whole entry): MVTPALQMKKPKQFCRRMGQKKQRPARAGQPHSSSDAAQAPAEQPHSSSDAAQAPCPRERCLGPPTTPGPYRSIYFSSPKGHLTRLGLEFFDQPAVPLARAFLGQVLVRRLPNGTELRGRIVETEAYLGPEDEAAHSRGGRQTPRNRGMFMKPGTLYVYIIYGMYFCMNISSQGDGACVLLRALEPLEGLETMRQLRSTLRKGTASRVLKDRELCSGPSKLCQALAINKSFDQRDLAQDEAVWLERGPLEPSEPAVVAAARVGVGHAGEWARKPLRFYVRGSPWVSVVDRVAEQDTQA
G/T mismatch-specific thymine DNA glycosylase (Homo sapiens), sequence (Q13569 whole entry): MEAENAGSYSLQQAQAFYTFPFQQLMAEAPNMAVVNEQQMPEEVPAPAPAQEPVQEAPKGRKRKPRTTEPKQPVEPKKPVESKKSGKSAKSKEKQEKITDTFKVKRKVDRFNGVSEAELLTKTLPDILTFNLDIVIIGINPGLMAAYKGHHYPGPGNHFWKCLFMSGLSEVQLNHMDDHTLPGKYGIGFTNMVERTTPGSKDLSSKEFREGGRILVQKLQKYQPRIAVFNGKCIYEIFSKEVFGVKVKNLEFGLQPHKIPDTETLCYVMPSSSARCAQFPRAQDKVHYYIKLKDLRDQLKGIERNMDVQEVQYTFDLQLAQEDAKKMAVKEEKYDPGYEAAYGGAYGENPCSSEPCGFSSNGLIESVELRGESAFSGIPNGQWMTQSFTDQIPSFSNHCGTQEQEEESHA

As for `CCCCCC(O)/C=C/[C@H]1C(=O)CC(O)C1C/C=C\CCCC(=O)O` (stereo not given in full), the inhibition is -9.9% in [1] (Hit No); 15.9% in test [2] (Hit No); -3.89% in test [3]; 41.2% in test [4] (Hit Yes); 5.49% in [5]; 33.6% in [6] (Hit No). Besides, the inhibition in test [7] turned out to be 12.9%; in test [8] (Hit No), 12.9%; in [9] (Hit No), 8.62%; in [10] (Hit No), 32%.
For the compound `CCOC(=O)C1=C(C)NC(C)=C(C(=O)OC)C1c1cccc([N+](=O)[O-])c1` (stereo not given), the inhibition in [1] (Hit No) is 2.81%; in test [2] (Hit No), 2.85%; in [3], -2.15%; in test [4] (Hit No) it was -2.39%; in test [5] it was 1.49%; in [6] (Hit No) it was -5.63%. For the same compound, the inhibition was -7.47% in [7], 12.9% in test [8] (Hit No), -2.89% in [9] (Hit No) and 1.01% in test [10] (Hit No).
On to `COc1cc(OC)cc(C(=O)NNC(=O)Nc2cccc3ccccc23)c1`, for which the inhibition in test [1] (Hit No) was 3.6%; in test [2] (Hit No), 3.65%; in [3] it was -7.99%; in test [4] (Hit No) it was 5.26%; in test [5] it was -1.69%; in test [6] (Hit No), -8.62%. Moreover, the inhibition turned out to be 2.2% in test [7], 2.66% in test [8] (Hit No), 3.09% in test [9] (Hit No) and 11.6% in test [10] (Hit No).
`CN1CCC(c2c[nH]c3ccc(O)cc23)CC1`: the inhibition in test [1] (Hit No) was -3.74%; in [2] (Hit No) it was -0.341%; in test [3] it was -5.58%; in test [4] (Hit No), -2.39%; in [5], -2.51%; in test [6] (Hit No), 8.69%. The inhibition is -5.79% in test [7], 12.9% in [8] (Hit No), -0.678% in test [9] (Hit No) and 22.5% in [10] (Hit No).
`O=c1ccc2c(OCCCCc3ccccc3)c3ccoc3cc2o1`: the inhibition in [1] (Hit No) is 0.0989%; in test [2] (Hit No), 2.27%; in [3] it was -2.86%; in test [4] (Hit No), 2.71%; in test [5] it was 4.31%; in test [6] (Hit No), -4.82%. Moreover, the inhibition stood at 4.38% in test [7], 7.17% in test [8] (Hit No), 0.716% in [9] (Hit No) and 5.01% in test [10] (Hit No).
On to `COc1ccc(NC(=O)c2ccc(-c3ccc(-c4noc(C)n4)cc3C)cc2)cc1OCCN(C)C`, for which the inhibition was -6.46% in test [1] (Hit No); 83.7% in [2] (Hit Yes); 2% in test [3]; -1.11% in test [4] (Hit No); 1.34% in [5]; 98% in test [6] (Hit Yes). Besides, the inhibition was 104% in [7], 8.82% in test [8] (Hit No), -3.51% in test [9] (Hit No) and 101% in test [10] (Hit Yes).
As to `CCCCC[C@H](O)/C=C/[C@H]1CCC(=O)[C@@H]1CCCCCCC(=O)O`, the inhibition is -3.08% in test [1] (Hit No); 6.97% in test [2] (Hit No); -4.12% in test [3]; 4.01% in [4] (Hit No); 1.28% in test [5]; 17.3% in test [6] (Hit No). For the same compound, the inhibition amounted to 15.9% in test [7], 1.19% in [8] (Hit No), 3.78% in test [9] (Hit No) and 11.4% in [10] (Hit No).
Take `O=C(NS(=O)(=O)N1CCC1)c1cc(C2CC2)c(OCC23CC4CC(CC(C4)C2)C3)cc1F`: the inhibition came to 98.5% in test [1] (Hit Yes); 60.8% in [2] (Hit No); 7.9% in test [3]; 17.5% in test [4] (Hit No); 7.57% in test [5]; 87.3% in test [6] (Hit Yes). In addition, the inhibition in test [7] is 93%; in test [8] (Hit Yes), 56.7%; in test [9] (Hit Yes) it was 93.6%; in [10] (Hit Yes) it was 79.6%.
For the compound `NCCc1c[nH]cn1`, the inhibition is -0.0333% in [1] (Hit No); -7.46% in test [2] (Hit No); -7.79% in test [3]; -0.234% in test [4] (Hit No); -0.352% in [5]; 10.4% in test [6] (Hit No). The inhibition was 10.5% in test [7], 15.1% in test [8] (Hit No), 0.419% in [9] (Hit No) and 7.61% in test [10] (Hit No).
With `O=C(O)CCc1ccc(NCc2cccc(Oc3ccccc3)c2)cc1`, the inhibition in test [1] (Hit No) is -4.08%; in test [2] (Hit No) it was 6.47%; in test [3] it was -1.29%; in test [4] (Hit No) it was -9.01%; in test [5], -7.7%; in test [6] (Hit No), 13.6%. The inhibition in [7] was 13.9%; in [8] (Hit No) it was -4.39%; in [9] (Hit No), -0.368%; in test [10] (Hit No), 20%.
On to `CC(CNS(=O)(=O)C(C)C)c1ccc(-c2ccc(C#N)cc2)cc1` (stereo not given), for which the inhibition in test [1] (Hit No) is 7.84%; in test [2] (Hit No), 23.5%; in test [3] it was -7.52%; in test [4] (Hit No) it was 0.669%; in [5], 12%; in test [6] (Hit No), 19.3%. The inhibition in test [7] was -2.6%; in test [8] (Hit No), 4.7%; in test [9] (Hit No), -4.77%; in test [10] (Hit No) it was 11.5%.
`Nc1nc2c(c(N3CCNCC3)n1)CCC1=C2[C@@H]2CCCC[C@@H]2O1`: the inhibition was 13.7% in [1] (Hit No); -2.48% in test [2] (Hit No); -2.85% in test [3]; 4.51% in test [4] (Hit No); -3.91% in test [5]; 0.963% in test [6] (Hit No). In addition, the inhibition is 3.48% in [7], 7.79% in [8] (Hit No), -5.22% in test [9] (Hit No) and 6.18% in [10] (Hit No).
Take `Cc1cc(OCCCS(C)(=O)=O)cc(C)c1-c1cccc(COc2ccc3c(c2)OC[C@H]3CC(=O)O)c1`: the inhibition in test [1] (Hit No) was 12.3%; in test [2] (Hit No), 12.1%; in test [3] it was -3.46%; in test [4] (Hit No), 8.25%; in [5], -4.36%; in test [6] (Hit No) it was 46.9%. Moreover, the inhibition worked out at 49.2% in test [7], 10.7% in [8] (Hit No), 18.3% in test [9] (Hit No) and 44.4% in [10] (Hit No).
Take `Cc1cc(Cn2cnc3c2C[C@@H](C(=O)O)N(C(=O)C(c2ccccc2)c2ccccc2)C3)ccc1N(C)C`: the inhibition was 7.18% in test [1] (Hit No); 19.4% in [2] (Hit No); -2.82% in test [3]; -0.733% in test [4] (Hit No); 10.3% in test [5]; 46% in [6] (Hit No). Besides, the inhibition in test [7] was 20.9%; in test [8] (Hit No), -6.87%; in test [9] (Hit No), 5.17%; in [10] (Hit No) it was 25.8%.
For the compound `O=C1CC[C@@]2(O)[C@H]3Cc4ccc(O)c5c4[C@@]2(CCN3CC2CC2)[C@H]1O5`, the inhibition in test [1] (Hit No) is -9.51%; in test [2] (Hit No), 4.49%; in test [3] it was -2.62%; in [4] (Hit No), -8.5%; in test [5] it was -9.92%; in [6] (Hit No), 4.42%. Further, the inhibition in test [7] is 14.6%; in [8] (Hit No), -4.39%; in test [9] (Hit No), -3.73%; in test [10] (Hit No), 27.8%.
